Laboratory results: ChEMBL document CHEMBL3124869 (J Med Chem, 2014)
pIC50, pKi: −log10 of the molar value. Values belong to the compound of their own block, whether it stands above or below them.

Experiments:
[1] = in vitro; details: dog, MDCK
Description: Intrinsic absorptive permeability from apical to basolateral side of dog RRCK cells

[2] = in vitro; details: human, liver microsomes
Description: Apparent total intrinsic clearance in human liver microsomes

[3] = physchem; details: octanol/water, pH 7.4
[4] = target: T1, ALK tyrosine kinase receptor (Homo sapiens, UniProt Q9UM73, L1196M)
[5] = target: T1, ALK tyrosine kinase receptor; remark: listed apart in the source
[6] = test system: Mus musculus; experiment: Toxicity in po dosed athymic nu/nu mouse xenografted with human NCI-H3122 cells harboring ALK L1196M mutant assessed as body weight reduction administered via gavage starting on day 15 post tumor implantation; type: organism-based; details: in vivo
[7] = Antitumor activity against human NCI-H3122 cells harboring ALK L1196M mutant xenografted in athymic nu/nu mouse assessed as tumor growth regression at 50 mg/kg, po bid administered via gavage starting on day 15 post tumor implantation measured on day 27; type: functional
[8] = Antitumor activity against human NCI-H3122 cells harboring ALK L1196M mutant xenografted in athymic nu/nu mouse assessed as tumor total growth inhibition at 15 mg/kg, po bid administered via gavage starting on day 15 post tumor implantation; type: functional; details: NCI-H3122, 360 h, read-out: TGI
[9] = Antitumor activity against human NCI-H3122 cells harboring ALK L1196M mutant xenografted in athymic nu/nu mouse assessed as tumor total growth inhibition at 30 mg/kg, po qd administered via gavage starting on day 15 post tumor implantation; type: functional; details: NCI-H3122, 360 h, read-out: TGI
[10] = Oral bioavailability in rat at 5 mg/kg; type: ADME, organism-based; details: in vivo
[11] = Tmax in rat at 5 mg/kg, po; type: ADME, organism-based; parameters: dose 5 mg/kg, route oral; details: in vivo
[12] = Cmax in rat at 5 mg/kg, po; type: ADME, organism-based; parameters: dose 5 mg/kg, route oral; details: in vivo
[13] = AUC in rat at 5 mg/kg, po; type: ADME, organism-based; parameters: dose 5 mg/kg, route oral; details: plasma
[14] = Half life in rat at 1 mg/kg, iv; type: ADME, organism-based; parameters: dose 1 mg/kg, route intravenous; details: in vivo
[15] = Volume of distribution at steady state in rat at 1 mg/kg, iv; type: ADME, organism-based; parameters: dose 1 mg/kg, route intravenous; details: in vivo, read-out: Vdss
[16] = Plasma clearance in rat at 1 mg/kg, iv; type: ADME, organism-based; parameters: dose 1 mg/kg, route intravenous
[17] = AUC in rat at 1 mg/kg, iv; type: ADME, organism-based; parameters: dose 1 mg/kg, route intravenous; details: plasma
[18] = target: NT-3 growth factor receptor (Homo sapiens, UniProt Q16288); experiment: Inhibition of NTRK3 (unknown origin) using Km levels of ATP
[19] = target: High affinity nerve growth factor receptor (Homo sapiens, UniProt P04629); experiment: Inhibition of NTRK1 (unknown origin) using Km levels of ATP
[20] = target: Focal adhesion kinase 1 (Homo sapiens, UniProt Q05397); experiment: Inhibition of PTK2 (unknown origin) using Km levels of ATP
[21] = target: Tyrosine-protein kinase Fes/Fps (Homo sapiens, UniProt P07332); experiment: Inhibition of FES (unknown origin) using Km levels of ATP
[22] = target: BDNF/NT-3 growth factors receptor (Homo sapiens, UniProt Q16620); experiment: Inhibition of NTRK2 (unknown origin) using Km levels of ATP
[23] = target: Leukocyte tyrosine kinase receptor (Homo sapiens, UniProt P29376); experiment: Inhibition of LTK (unknown origin) using Km levels of ATP
[24] = target: Tyrosine-protein kinase Fer (Homo sapiens, UniProt P16591); experiment: Inhibition of FER (unknown origin) using Km levels of ATP
[25] = target: Proto-oncogene tyrosine-protein kinase ROS (Homo sapiens, UniProt P08922); experiment: Inhibition of ROS1 (unknown origin) by Pfizer mobility shift assay
[26] = target: Activated CDC42 kinase 1 (Homo sapiens, UniProt Q07912)

Papp A→B [1]: 24 ×10⁻⁶ cm/s
CLint scaled [2]: 3 mL/min/kg
logD [3]: 2.4
SMILES: C[C@@H](Oc1cc(-c2cnnn2C)cnc1N)c1cc(F)ccc1-n1nccn1

Papp A→B [1]: 14 ×10⁻⁶ cm/s
CLint scaled [2]: 49 mL/min/kg
logD [3]: 3.6
SMILES: Cc1nc(C(C)(C)O)ccc1-c1cnc(N)c(O[C@H](C)c2cc(F)ccc2-n2nccn2)c1

Papp A→B [1]: 17 ×10⁻⁶ cm/s
CLint scaled [2]: 15 mL/min/kg
logD [3]: 2.9
SMILES: Cc1nc([C@@](C)(O)CO)sc1-c1cnc(N)c(O[C@H](C)c2cc(F)ccc2-n2nccn2)c1

Papp A→B [1]: 21 ×10⁻⁶ cm/s
CLint scaled [2]: 80 mL/min/kg
logD [3]: 2.4
SMILES: Cc1nccn1-c1cnc(N)c(O[C@H](C)c2cc(F)ccc2-n2nccn2)c1

Papp A→B [1]: 18 ×10⁻⁶ cm/s
CLint scaled [2]: 23 mL/min/kg
logD [3]: 3.6
SMILES: Cc1nc(C(C)(C)O)sc1-c1cnc(N)c(O[C@H](C)c2cc(F)ccc2-n2nccn2)c1

Papp A→B [1]: 14 ×10⁻⁶ cm/s
CLint scaled [2]: 13 mL/min/kg
logD [3]: 3.2
SMILES: Cc1nc(C2(O)CCS(=O)(=O)C2)sc1-c1cnc(N)c(O[C@H](C)c2cc(F)ccc2-n2nccn2)c1 (stereo not given in full)

Papp A→B [1]: 22 ×10⁻⁶ cm/s
CLint scaled [2]: 49 mL/min/kg
logD [3]: 3.1
SMILES: COc1ncncc1-c1cnc(N)c(O[C@H](C)c2cc(F)ccc2-n2nccn2)c1

Papp A→B [1]: 21 ×10⁻⁶ cm/s
CLint scaled [2]: 46 mL/min/kg
logD [3]: 3.3
SMILES: Cc1n[nH]cc1-c1cnc(N)c(O[C@H](C)c2cc(F)ccc2-n2nccn2)c1

Papp A→B [1]: 20 ×10⁻⁶ cm/s
CLint scaled [2]: 37 mL/min/kg
logD [3]: 2.7
SMILES: Cc1n[nH]cc1-c1cnc(N)c(O[C@@H](C)c2cc(F)ccc2C#N)c1

Papp A→B [1]: 14 ×10⁻⁶ cm/s
CLint scaled [2]: 38 mL/min/kg
logD [3]: 3.7
SMILES: COc1ncccc1-c1cnc(N)c(O[C@H](C)c2cc(F)ccc2-n2nccn2)c1

Papp A→B [1]: 27 ×10⁻⁶ cm/s
CLint scaled [2]: 68 mL/min/kg
logD [3]: 3.4
SMILES: Cc1nn(C)cc1-c1cnc(N)c(O[C@H](C)c2cc(F)ccc2-n2nccn2)c1

Papp A→B [1]: 14 ×10⁻⁶ cm/s
CLint scaled [2]: 65 mL/min/kg
logD [3]: 3.5
SMILES: COc1ccc(F)cc1[C@@H](C)Oc1cc(-c2c[nH]nc2C)cnc1N

Papp A→B [1]: 21 ×10⁻⁶ cm/s
CLint scaled [2]: 138 mL/min/kg
logD [3]: 3.3
SMILES: Cc1nc(C2(O)CCOC2)sc1-c1cnc(N)c(O[C@H](C)c2cc(F)ccc2-n2nccn2)c1 (single isomer, unassigned)

Papp A→B [1]: 22 ×10⁻⁶ cm/s
CLint scaled [2]: 17 mL/min/kg
logD [3]: 3.3
SMILES: C[C@@H](Oc1cc(-c2ccnn2C)cnc1N)c1cc(F)ccc1-n1nccn1

Papp A→B [1]: 3.4 ×10⁻⁶ cm/s
CLint scaled [2]: 55 mL/min/kg
logD [3]: 2.6
SMILES: Cc1nc(C2(O)CN(C)C2)sc1-c1cnc(N)c(O[C@H](C)c2cc(F)ccc2-n2nccn2)c1

SMILES: C[C@@H](Oc1cc(-c2cnn(C3CCNCC3)c2)cnc1N)c1cc(F)ccc1Cl
pKi [4]: 8.30
pIC50 [5]: 6.41
Papp A→B [1]: 2.3 ×10⁻⁶ cm/s
CLint scaled [2]: 27 mL/min/kg
logD [3]: 1.7

Papp A→B [1]: 18 ×10⁻⁶ cm/s
CLint scaled [2]: 22 mL/min/kg
logD [3]: 3.3
SMILES: C[C@@H](Oc1cc(-c2cn(C)nc2C#N)cnc1N)c1cc(F)ccc1-n1nccn1

Papp A→B [1]: 18 ×10⁻⁶ cm/s
CLint scaled [2]: 31 mL/min/kg
logD [3]: 3.4
SMILES: Cc1n[nH]cc1-c1cnc(N)c(O[C@H](C)c2cc(F)ccc2F)c1

bioavailability [10]: 86%
Tmax [11]: 1.3 h
Cmax [12]: 568 nM
AUC [13]: 2.87 µM·h
half-life [14]: 0.9 h
Vd [15]: 2 L/kg
clearance [16]: 54 mL/min/kg
AUC [17]: 0.667 µM·h
pIC50 [18]: 7.74
pIC50 [19]: 7.77
pIC50 [20]: 7.80
pIC50 [21]: 8.30
pIC50 [22]: 8.40
pIC50 [23]: 8.70
pIC50 [24]: 8.70
pKi [25]: 10.70
pIC50 [26]: 7.82
Papp A→B [1]: 19 ×10⁻⁶ cm/s
CLint scaled [2]: 15 mL/min/kg
logD [3]: 2.9
SMILES: Cc1nc([C@](C)(O)CO)sc1-c1cnc(N)c(O[C@H](C)c2cc(F)ccc2-n2nccn2)c1
Activity [6]: Non-toxic
Activity [7]: 56%
inhibition in vivo at 15 mg/kg [8]: 100%
inhibition in vivo at 30 mg/kg [9]: 100%
